Where “and” joins values, the source holds several entries; their conditions need not be identical. Identical values can stand only once.
Molecular target: T1, JAK3: Recombinant human kinase domain (Homo sapiens, UniProt P52333)
T1 construct: JAK3: Recombinant human kinase domain from Millipore (Cat #14-629) or prepared; purchased Millipore 14-629
Assay: Determination of IC50 of Janus Kinase (JAK) inhibition, radioactive end-point 33P-ATP assay, JAK3
Format: biochemical
Details: ATP 1.5 uM, peptide 50 uM, 20 minutes, read-out: JAK3-INHIB-DR/v1~NO ADDITIVE~Enzyme_Conc = 100

T1 sequence (P52333 822-1111 limits assumed): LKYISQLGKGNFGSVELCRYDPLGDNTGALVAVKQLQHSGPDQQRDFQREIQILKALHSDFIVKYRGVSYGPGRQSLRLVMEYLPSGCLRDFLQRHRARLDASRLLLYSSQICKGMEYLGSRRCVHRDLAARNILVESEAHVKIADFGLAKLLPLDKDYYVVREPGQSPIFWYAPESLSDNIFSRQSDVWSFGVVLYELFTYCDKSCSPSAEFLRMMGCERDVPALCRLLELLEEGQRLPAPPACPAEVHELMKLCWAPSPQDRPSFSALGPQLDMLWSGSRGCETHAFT

Point of comparison: CCOC[C@H](C)NC(=O)c1c[nH]c2ncc(-c3nn(C)c4cc(Cl)ccc34)nc12 [Example I-171, 2-(6-Chloro-1-methyl-1H-indazol-3-yl)-5H-pyrrolo[2,3-b]pyrazine-7-carboxylic acid ((S)-2-ethoxy-1-methyl-ethyl)-amide], IC50 5.78 nM. Against it:
- C[C@@H](NC(=O)c1c[nH]c2ncc(-c3nn(C)c4cc(Cl)ccc34)nc12)C(=O)N1CC[C@H](F)C1 [Example I-118, 2-(6-Chloro-1-methyl-1H-indazol-3-yl)-5H-pyrrolo[2,3-b]pyrazine-7-carboxylic acid [(R)-2-((S)-3-fluoro-pyrrolidin-1-yl)-1-methyl-2-oxo-ethyl]-amide] — 2.9-fold lower, 2.01 nM
- C[C@@H](NC(=O)c1c[nH]c2ncc(-c3nn(C)c4cc(Cl)ccc34)nc12)C(=O)N1CC[C@@H](F)C1 [Example I-119, 2-(6-Chloro-1-methyl-1H-indazol-3-yl)-5H-pyrrolo[2,3-b]pyrazine-7-carboxylic acid [(R)-2-((R)-3-fluoro-pyrrolidin-1-yl)-methyl-2-oxo-ethyl]-amide] — 1.6-fold lower, 3.64 nM
- C[C@@H](NC(=O)c1c[nH]c2ncc(-c3nn(C)c4cc(Cl)ccc34)nc12)C(=O)N1CC(F)C1 [Example I-120, 2-(6-Chloro-1-methyl-1H-indazol-3-yl)-5H-pyrrolo[2,3-b]pyrazine-7-carboxylic acid [(R)-2-(3-fluoro-azetidin-1-yl)-1-methyl-2-oxo-ethyl)-amide] — 2.1-fold lower, 2.73 nM
- C[C@H](CN1CC(C#N)C1)NC(=O)c1c[nH]c2ncc(-c3nn(C)c4cc(Cl)ccc34)nc12 [Example I-126, 2-(6-Chloro-1-methyl-1H-indazol-3-yl)-5H-pyrrolo[2,3-b]pyrazine-7-carboxylic acid [(R)-2-(3-cyano-azetidin-1-yl)-1-methyl-ethyl]-amide] — 3.2-fold higher, 18.3 nM
- CC(C)NC(=O)c1c[nH]c2ncc(-c3nn(CCCN(C)C)c4cc(Cl)cc(F)c34)nc12 [Example I-130, 2-[6-Chloro-1-(3-dimethylamino-propyl)-4-fluoro-1H-indazol-3-yl]-5H-pyrrolo[2,3-b]pyrazine-7-carboxylic acid isopropylamide] — 2.5-fold higher, 14.3 nM
- C[C@H](Cn1cccn1)NC(=O)c1c[nH]c2ncc(-c3nn(C)c4cc(F)ccc34)nc12 [Example I-133, 2-(6-Fluoro-1-methyl-1H-indazol-3-yl)-5H-pyrrolo[2,3-b]pyrazine-7-carboxylic acid ((R)-1-methyl-2-pyrazol-1-yl-ethyl)-amide] — 9.8-fold higher, 56.7 nM
- CO[C@@H](C)CNC(=O)c1c[nH]c2ncc(-c3nn(C)c4cc(F)ccc34)nc12 [Example I-135, 2-(6-Fluoro-1-methyl-1H-indazol-3-yl)-5H-pyrrolo[2,3-b]pyrazine-7-carboxylic acid ((S)-2-methoxy-propyl)-amide] — within 1.5-fold, 6.9 nM
- C[C@@H](C#N)CNC(=O)c1c[nH]c2ncc(-c3nn(C)c4cc(F)ccc34)nc12 [Example I-136, 2-(6-Fluoro-1-methyl-1H-indazol-3-yl)-5H-pyrrolo[2,3-b]pyrazine-7-carboxylic acid ((R)-2-cyano-2-methyl-ethyl)-amide] — 30-fold higher, 176 nM
- C[C@H](CNC(=O)c1c[nH]c2ncc(-c3nn(C)c4cc(F)ccc34)nc12)C(N)=O [Example I-137, 2-(6-Fluoro-1-methyl-1H-indazol-3-yl)-5H-pyrrolo[2,3-b]pyrazine-7-carboxylic acid ((R)-2-carbamoyl-propyl)-amide] — 23-fold higher, 132 nM
- C[C@H](NC(=O)c1c[nH]c2ncc(-c3nn(C)c4cc(Cl)cc(F)c34)nc12)C1CC1 [Example I-141, 2-(6-Chloro-4-fluoro-1-methyl-1H-indazol-3-yl)-5H-pyrrolo[2,3-b]pyrazine-7-carboxylic acid ((S)-1-cyclopropyl-ethyl)-amide] — 1.5-fold lower, 3.77 nM
- Cn1nc(-c2cnc3[nH]cc(C(=O)NC4CCCC(=O)C4)c3n2)c2ccc(Cl)cc21 (stereo not drawn) [Example I-147, 2-(6-Chloro-1-methyl-1H-indazol-3-yl)-5H-pyrrolo[2,3-b]pyrazine-7-carboxylic acid (3-oxo-cyclohexyl)-amide] — 6.6-fold higher, 38.4 nM
- COCC(C)NC(=O)c1c[nH]c2ncc(-c3nn(C)c4cc(Cl)ccc34)nc12 (stereo not drawn) [Example I-152, 2-(6-Chloro-1-methyl-1H-indazol-3-yl)-5H-pyrrolo[2,3-b]pyrazine-7-carboxylic acid (2-methoxy-1-methyl-ethyl)-amide] — 5-fold lower, 1.15 nM
- CC1CCCCC1NC(=O)c1c[nH]c2ncc(-c3nn(C)c4cc(Cl)ccc34)nc12 (stereo not drawn) [Example I-153, 2-(6-Chloro-1-methyl-1H-indazol-3-yl)-5H-pyrrolo[2,3-b]pyrazine-7-carboxylic acid (2-methyl-cyclohexyl)-amide] — within 1.5-fold, 4.02 nM
- CC[C@H](COC)NC(=O)c1c[nH]c2ncc(-c3nn(C)c4cc(Cl)ccc34)nc12 [Example I-162, 2-(6-Chloro-1-methyl-1H-indazol-3-yl)-5H-pyrrolo[2,3-b]pyrazine-7-carboxylic acid ((R)-1-methoxymethyl-propyl)-amide] — 2-fold higher, 11.3 nM
- C[C@@H](CO)NC(=O)c1c[nH]c2ncc(-c3nn(C)c4cc(Cl)ccc34)nc12 [Example I-164, 2-(6-Chloro-1-methyl-1H-indazol-3-yl)-5H-pyrrolo[2,3-b]pyrazine-7-carboxylic acid ((S)-2-hydroxy-1-methyl-ethyl)-amide] — 2.9-fold higher, 17 nM
- COC[C@H](C)NC(=O)c1c[nH]c2ncc(-c3nn(C)c4cc(Cl)cc(F)c34)nc12 [Example I-170, 2-(6-Chloro-4-fluoro-1-methyl-1H-indazol-3-yl)-5H-pyrrolo[2,3-b]pyrazine-7-carboxylic acid ((S)-2-methoxy-1-methyl-ethyl)-amide] — within 1.5-fold, 7.12 nM
- CC[C@@H](COC)NC(=O)c1c[nH]c2ncc(-c3nn(C)c4cc(Cl)ccc34)nc12 [Example I-173, 2-(6-Chloro-1-methyl-1H-indazol-3-yl)-5H-pyrrolo[2,3-b]pyrazine-7-carboxylic acid ((S)-1-methoxymethyl-propyl)-amide] — 1.6-fold lower, 3.56 nM
- COC[C@@H](NC(=O)c1c[nH]c2ncc(-c3nn(C)c4cc(Cl)ccc34)nc12)C(=O)N1CC(F)C1 [Example I-174, 2-(6-Chloro-1-methyl-1H-indazol-3-yl)-5H-pyrrolo[2,3-b]pyrazine-7-carboxylic acid [(R)-2-(3-fluoro-azetidin-1-yl)-1-methoxymethyl-2-oxo-ethyl]-amide] — 5.3-fold lower, 1.09 nM
- COC[C@@H](NC(=O)c1c[nH]c2ncc(-c3nn(C)c4cc(Cl)ccc34)nc12)C(=O)N1CC(C#N)C1 [Example I-175, 2-(6-Chloro-1-methyl-1H-indazol-3-yl)-5H-pyrrolo[2,3-b]pyrazine-7-carboxylic acid [(R)-2-(3-cyano-azetidin-1-yl)-1-methoxymethyl-2-oxo-ethyl]-amide] — 11-fold lower, 0.54 nM
- C[C@@H](O)[C@@H](CO)NC(=O)c1c[nH]c2ncc(-c3nn(C)c4cc(F)ccc34)nc12 [Example I-176, 2-(6-Fluoro-1-methyl-1H-indazol-3-yl)-5H-pyrrolo[2,3-b]pyrazine-7-carboxylic acid ((1R,2R)-2-hydroxy-1-hydroxymethyl-propyl)-amide] — 29-fold higher, 165 nM
- CC[C@@H](C)NC(=O)c1c[nH]c2ncc(-c3nn(C)c4cc(F)ccc34)nc12 [Example I-180, 2-(6-Fluoro-1-methyl-1H-indazol-3-yl)-5H-pyrrolo[2,3-b]pyrazine-7-carboxylic acid ((R)-sec-butyl)-amide] — within 1.5-fold, 3.89 nM
- [2H]C([2H])([2H])OC[C@H](C)NC(=O)c1c[nH]c2ncc(-c3nn(C)c4cc(F)ccc34)nc12 [Example I-182, 2-(6-Fluoro-1-methyl-1H-indazol-3-yl)-5H-pyrrolo[2,3-b]pyrazine-7-carboxylic acid ((S)-1-methyl-2-trideuteromethoxy-ethyl)-amide] — 5.4-fold lower, 1.07 nM
- CC(CC(F)(F)F)NC(=O)c1c[nH]c2ncc(-c3nn(C)c4cc(F)ccc34)nc12 (stereo not drawn) [Example I-185, 2-(6-Fluoro-1-methyl-1H-indazol-3-yl)-5H-pyrrolo[2,3-b]pyrazine-7-carboxylic acid (3,3,3-trifluoro-1-methyl-propyl)-amide] — within 1.5-fold, 5.03 nM
- CC(C)CC(C)NC(=O)c1c[nH]c2ncc(-c3nn(C)c4cc(F)ccc34)nc12 (stereo not drawn) [Example I-187, 2-(6-Fluoro-1-methyl-1H-indazol-3-yl)-5H-pyrrolo[2,3-b]pyrazine-7-carboxylic acid (1,3-dimethyl-butyl)-amide] — 3.5-fold higher, 20.4 nM
- C[C@H](CO)NC(=O)c1c[nH]c2ncc(-c3nn(C)c4cc(Cl)ccc34)nc12 [Example I-200, 2-(6-Chloro-1-methyl-1H-indazol-3-yl)-5H-pyrrolo[2,3-b]pyrazine-7-carboxylic acid ((R)-2-hydroxy-1-methyl-ethyl)-amide] — 9.4-fold higher, 54.5 nM
- CC(COc1ccccc1)NC(=O)c1c[nH]c2ncc(-c3nn(C)c4cc(F)ccc34)nc12 (stereo not drawn) [Example I-202, 2-(6-Fluoro-1-methyl-1H-indazol-3-yl)-5H-pyrrolo[2,3-b]pyrazine-7-carboxylic acid (1-methyl-2-phenoxy-ethyl)-amide] — 24-fold higher, 136 nM
- C[C@H](CCC#N)NC(=O)c1c[nH]c2ncc(-c3nn(C)c4cc(Cl)ccc34)nc12 [Example I-205, 2-(6-Chloro-1-methyl-1H-indazol-3-yl)-5H-pyrrolo[2,3-b]pyrazine-7-carboxylic acid ((R)-3-cyano-1-methyl-propyl)-amide] — 3.2-fold higher, 18.4 nM
- Cn1nc(-c2cnc3[nH]cc(C(=O)NC4(c5ccc(Br)cc5)CCC4)c3n2)c2ccc(F)cc21 [Example I-210, 2-(6-Fluoro-1-methyl-1H-indazol-3-yl)-5H-pyrrolo[2,3-b]pyrazine-7-carboxylic acid [1-(4-bromo-phenyl)-cyclobutyl]-amide] — 18-fold higher, 102 nM

In the case of Cn1nc(-c2cnc3[nH]cc(C(=O)NC4(c5cccc(Br)c5)CCC4)c3n2)c2ccc(F)cc21 [Example I-209, 2-(6-Fluoro-1-methyl-1H-indazol-3-yl)-5H-pyrrolo[2,3-b]pyrazine-7-carboxylic acid [1-(3-bromo-phenyl)-cyclobutyl]-amide], the IC50 is reported as > 1000 nM and 830 nM.
